Test results as given in article PMC10590056, “Design and synthesis of cabotegravir derivatives bearing 1,2,3-triazole and evaluation of anti-liver cancer activity” (Frontiers in Pharmacology, 2023).
Several values for one entry are separate records, joined by “and”; a condition that tells them apart may be missing. Identical values can stand only once. Like-named read-outs stand apart in the source and are kept apart here.

What was measured:
Type in all cases: cell-based
HepG2 cells = experiment: MTT assay for cell proliferation and cytotoxicity, HepG2; design: key to Inhibitory rate: inhibition rate = 1 - mean A490 sample/mean A490 control (fraction)
Method in brief: (§1)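 Proliferation read-out is MTT reduction (4 h) after 48 h treatment with KJ-5 or KJ-12 across 0, 1, 2, 4, 8, 16 and 32 μM. Cultures in 10% FBS DMEM, 37 °C, plated at 10^5 cells/mL; A490 of DMSO-dissolved formazan compared with untreated control.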

KYSE-30 cells = experiment: MTT assay for cell proliferation, KYSE-30; design: key to Inhibitory rate: inhibition rate = 1 - mean A490 sample/mean A490 control (fraction)
Method in brief: as §1

normal hepatic cells L02 = experiment: MTT inhibition rate in normal hepatic cells L02; details: for Average OD / Inhibitory rate / ODtreated/ODcontrol: L02 cells, 3 repeat experiments; for Average OD: average of 5 wells; for Inhibitory rate / ODtreated/ODcontrol: fraction
p-H2AX in HepG2 cells = experiment: H2AX phosphorylation by immunofluorescence and Western blotting; details: HepG2, 24 h
Protocol: HepG2 cells were plated in laser confocal dishes (Nest, China), followed by the addition of KJ-5 or KJ-12 for 24 h. Then, 4% paraformaldehyde was added to each laser confocal dish for 20 min after rinsing with PBS. Before the goat serum was added to block for 1 h, 0.5% Triton X-100 was used to penetrate HepG2 for 30 min. Subsequently, the cells were incubated with p-H2AX (Cell Signaling Technology, MA, United States) at a 1:800 dilution at 4°C overnight. The cells were rinsed with PBS and incubated with Alexa Fluor 488 (Proteintech, Wuhan, China) at a 1:1000 dilution in dark at room temperature for 1 h. DAPI was used to stain the cell nucleus for 5 min. Then, the cells were rinsed with PBS before observing the cells under a laser confocal microscope (Nikon, Tokyo, Japan).
After being pretreated with either KJ-5 or KJ-12 at concentrations of 2, 4, or 8 μM for 24 h, the cells were harvested and lysed using an ice-cold cell lysis buffer from Beyotime Biotechnology (Shanghai, China). The proteins were mixed with a loading buffer and denatured by heating at 95°C–100°C for 5–10 min. Equal amounts of protein were loaded onto a 10% SDS-PAGE gel along with a molecular weight marker and separated by electrophoresis for 2 h. The separated proteins were transferred onto a PVDF membrane, which was blocked with 5% non-fat milk for non-specific binding sites on the membrane. […]

[1] = tested on: Bcl-2, Bax, cleaved caspase-9, cleaved caspase-3, cleaved PARP in HepG2 cells; experiment: Western blot of mitochondrial apoptotic proteins
Protocol: After being pretreated with either KJ-5 or KJ-12 at concentrations of 2, 4, or 8 μM for 24 h, the cells were harvested and lysed using an ice-cold cell lysis buffer from Beyotime Biotechnology (Shanghai, China). The proteins were mixed with a loading buffer and denatured by heating at 95°C–100°C for 5–10 min. Equal amounts of protein were loaded onto a 10% SDS-PAGE gel along with a molecular weight marker and separated by electrophoresis for 2 h. The separated proteins were transferred onto a PVDF membrane, which was blocked with 5% non-fat milk for non-specific binding sites on the membrane. Then, the membrane was incubated with primary antibodies at 4°C overnight. Following incubation with the primary antibody, the membrane was incubated with HRP-conjugated goat anti-rabbit or goat anti-mouse IgG at 37°C for 1 h. Protein bands were visualized on the PVDF membrane using an ECL hypersensitive chemiluminescence solution and a Bio-Rad gel imaging and analysis system.

[2] = HepG2, fraction, per experiment

Question: With `COc1c2n(cc(C(=O)Nc3cccc(-c4cn(-c5cc(C(F)(F)F)cc(C(F)(F)F)c5)nn4)c3)c1=O)C[C@H]1OC[C@H](C)N1C2=O` [KJ-5] as the compound, how does the Inhibitory rate (HepG2 cells; [2]) read?
Answer: Its Inhibitory rate is 0.8445 and 0.8592 and 0.8525.

Question: What about the ODtreated/ODcontrol (HepG2 cells; [2]) of the same compound?
Answer: The ODtreated/ODcontrol was 0.1555 and 0.1408 and 0.1475.

Question: And the inhibition at 4 µM (HepG2 cells; Homo sapiens, HepG2, liver cancer cells, 4 μM, read-out: Inhibition rate on liver cancer cells)?
Answer: Its inhibition at 4 µM is ~50%.

Question: And the IC50 (HepG2 cells; Homo sapiens, HepG2, 48 h, MTT)?
Answer: The IC50 was 4.29 ± 0.1 µM.

Question: What about the inhibition at 16 µM (HepG2 cells; Homo sapiens, preliminary screening, HepG2, 16 μM, 48 h, mean±SD, unit inferred, read-out: Inhibition rate (16μM), 48 h, HepG2) of the same compound?
Answer: Its inhibition at 16 µM is 85.21 ± 0.73%.

Question: What about the IC50 (KYSE-30 cells; Homo sapiens, KYSE-30, 48 h, MTT, read-out: IC50 KYSE-30) of the same compound?
Answer: The IC50 was 8.51 ± 0.43 µM.

Question: What about the IC50 (KYSE-30 cells; Homo sapiens, KYSE-30, KYSE-30, one of three experiments, unit inferred, read-out: IC50, single experiment, KYSE-30) of the same compound?
Answer: The IC50 was 8.96 µM.

Question: What about the inhibition at 16 µM (KYSE-30 cells; Homo sapiens, preliminary screening, KYSE-30, 16 μM, 48 h, mean±SD, unit inferred, read-out: Inhibition rate (16μM), 48 h, KYSE-30) of the same compound?
Answer: The inhibition at 16 µM was 65.7 ± 0.91%.

Question: What about the ODtreated/ODcontrol (KYSE-30 cells; KYSE-30, first of three experiments) of the same compound?
Answer: Its ODtreated/ODcontrol is 0.346.

Question: And the Inhibitory rate (KYSE-30 cells; KYSE-30, given as fraction, first of three experiments)?
Answer: The Inhibitory rate was 0.654.

Question: What about the Inhibitory rate (KYSE-30 cells; KYSE-30, given as fraction, second of three experiments) of the same compound?
Answer: Its Inhibitory rate is 0.6669.

Question: What about the Inhibitory rate (KYSE-30 cells; KYSE-30, given as fraction, third of three experiments) of the same compound?
Answer: The Inhibitory rate was 0.6494.

Question: What about the Inhibitory rate (KYSE-30 cells; KYSE-30, group 1 (concentration), fraction, single experiments) of the same compound?
Answer: Its Inhibitory rate is 0.1205 and 0.156 and 0.08655.

Question: And the ODtreated/ODcontrol (KYSE-30 cells; KYSE-30, group 1 (concentration), single experiments)?
Answer: Its ODtreated/ODcontrol is 0.8795 and 0.844 and 0.9135.

Question: And the Inhibitory rate (KYSE-30 cells; KYSE-30, group 2 (concentration), fraction, single experiments)?
Answer: The Inhibitory rate was 0.2874 and 0.3093 and 0.2896.

Question: And the ODtreated/ODcontrol (KYSE-30 cells; KYSE-30, group 2 (concentration), single experiments)?
Answer: Its ODtreated/ODcontrol is 0.7126 and 0.6907 and 0.7104.

Question: And the Inhibitory rate (KYSE-30 cells; KYSE-30, group 4 (concentration), fraction, single experiments)?
Answer: The Inhibitory rate was 0.3928 and 0.4106 and 0.3851.

Question: What about the ODtreated/ODcontrol (KYSE-30 cells; KYSE-30, group 4 (concentration), single experiments) of the same compound?
Answer: The ODtreated/ODcontrol was 0.6072 and 0.5895 and 0.6149.

Question: What about the Inhibitory rate (KYSE-30 cells; KYSE-30, group 8 (concentration), fraction, single experiments) of the same compound?
Answer: Its Inhibitory rate is 0.503 and 0.5061 and 0.5028.

Question: What about the ODtreated/ODcontrol (KYSE-30 cells; KYSE-30, group 8 (concentration), single experiments) of the same compound?
Answer: Its ODtreated/ODcontrol is 0.497 and 0.4939 and 0.4972.

Question: What about the Inhibitory rate (KYSE-30 cells; KYSE-30, group 16 (concentration), fraction, single experiments) of the same compound?
Answer: Its Inhibitory rate is 0.6001 and 0.6158 and 0.6257.

Question: What about the ODtreated/ODcontrol (KYSE-30 cells; KYSE-30, group 16 (concentration), single experiments) of the same compound?
Answer: Its ODtreated/ODcontrol is 0.3999 and 0.3842 and 0.3743.

Question: What about the Inhibitory rate (KYSE-30 cells; KYSE-30, group 32 (concentration), fraction, single experiments) of the same compound?
Answer: Its Inhibitory rate is 0.6693 and 0.6807 and 0.6972.

Question: And the ODtreated/ODcontrol (KYSE-30 cells; KYSE-30, group 32 (concentration), single experiments)?
Answer: Its ODtreated/ODcontrol is 0.3307 and 0.3193 and 0.3028.

Question: What about the IC50 (KYSE-30 cells; KYSE-30, one of three experiments, unit inferred, read-out: IC50, single experiment, KYSE-30) of the same compound?
Answer: The IC50 was 8.11 µM and 8.46 µM.

Question: What about the ODtreated/ODcontrol (KYSE-30 cells; KYSE-30, second of three experiments) of the same compound?
Answer: The ODtreated/ODcontrol was 0.3331.

Question: What about the ODtreated/ODcontrol (KYSE-30 cells; KYSE-30, third of three experiments) of the same compound?
Answer: The ODtreated/ODcontrol was 0.3506.

Question: And the inhibition at 1 µM (normal hepatic cells L02; Homo sapiens, L02, 48 h, L02, 1 μM, 48 h)?
Answer: Its inhibition at 1 µM is 9.85 ± 1.6%.

Question: And the inhibition at 2 µM (normal hepatic cells L02; Homo sapiens, L02, 48 h, L02, 2 μM, 48 h)?
Answer: The inhibition at 2 µM was 14.9 ± 1.97%.

Question: And the inhibition at 4 µM (normal hepatic cells L02; Homo sapiens, L02, 48 h, L02, 4 μM, 48 h)?
Answer: Its inhibition at 4 µM is < 20%.

Question: And the inhibition at 8 µM (normal hepatic cells L02; Homo sapiens, L02, 48 h, L02, 8 μM, 48 h)?
Answer: Its inhibition at 8 µM is 27.1 ± 1.03%.

Question: And the inhibition at 16 µM (normal hepatic cells L02; Homo sapiens, L02, 48 h, L02, 16 μM, 48 h)?
Answer: The inhibition at 16 µM was 34.9 ± 2.22%.

Question: And the “Average OD” value (normal hepatic cells L02; Group 1)?
Answer: The value was 1.014 and 1.1374 and 1.3158.

Question: What about the Inhibitory rate (normal hepatic cells L02; Group 1) of the same compound?
Answer: Its Inhibitory rate is 0.1149 and 0.09786 and 0.08274.

Question: What about the ODtreated/ODcontrol (normal hepatic cells L02; Group 1) of the same compound?
Answer: The ODtreated/ODcontrol was 0.8851 and 0.9021 and 0.9173.

Question: What about the “Average OD” value (normal hepatic cells L02; Group 2) of the same compound?
Answer: The value was 0.969 and 1.07 and 1.2316.

Question: What about the Inhibitory rate (normal hepatic cells L02; Group 2) of the same compound?
Answer: Its Inhibitory rate is 0.1715 and 0.1379 and 0.1371.

Question: What about the ODtreated/ODcontrol (normal hepatic cells L02; Group 2) of the same compound?
Answer: The ODtreated/ODcontrol was 0.8285 and 0.8621 and 0.8629.

Question: And the “Average OD” value (normal hepatic cells L02; Group 4)?
Answer: Its value is 0.922 and 1.0172 and 1.2162.

Question: And the Inhibitory rate (normal hepatic cells L02; Group 4)?
Answer: Its Inhibitory rate is 0.1819 and 0.1797 (2×).

Question: And the ODtreated/ODcontrol (normal hepatic cells L02; Group 4)?
Answer: The ODtreated/ODcontrol was 0.8181 and 0.8203 (2×).

Question: And the “Average OD” value (normal hepatic cells L02; Group 8)?
Answer: The value was 0.8272 and 0.9114 and 1.0668.

Question: And the Inhibitory rate (normal hepatic cells L02; Group 8)?
Answer: Its Inhibitory rate is 0.2824 and 0.2641 and 0.265.

Question: What about the ODtreated/ODcontrol (normal hepatic cells L02; Group 8) of the same compound?
Answer: The ODtreated/ODcontrol was 0.7176 and 0.7359 and 0.735.

Question: And the “Average OD” value (normal hepatic cells L02; Group 16)?
Answer: Its value is 0.7216 and 0.9442.

Question: What about the Inhibitory rate (normal hepatic cells L02; Group 16) of the same compound?
Answer: Its Inhibitory rate is 0.3649 and 0.358 and 0.3234.

Question: And the ODtreated/ODcontrol (normal hepatic cells L02; Group 16)?
Answer: Its ODtreated/ODcontrol is 0.6351 and 0.642 and 0.6766.

Question: What about the “Average OD” value (normal hepatic cells L02; Group 32) of the same compound?
Answer: Its value is 0.428 and 0.4844 and 0.436.

Question: What about the Inhibitory rate (normal hepatic cells L02; Group 32) of the same compound?
Answer: The Inhibitory rate was 0.7067 and 0.6192 and 0.6094.

Question: What about the ODtreated/ODcontrol (normal hepatic cells L02; Group 32) of the same compound?
Answer: The ODtreated/ODcontrol was 0.2933 and 0.3808 and 0.3906.

Question: What about the “Expression of p-H2AX (DNA damage marker)” value (p-H2AX in HepG2 cells) of the same compound?
Answer: The value was “increased the expression of p-H2AX”.

Question: What about the Bax levels ([1]; HepG2, 2, 4 or 8 μM, 24 h) of the same compound?
Answer: The Bax levels was “increased”.

Question: What about the Bax/Bcl-2 ratio ([1]; HepG2, 2, 4 or 8 μM, 24 h) of the same compound?
Answer: Its Bax/Bcl-2 ratio is “increased”.

Question: What about the Bcl-2 protein levels ([1]; HepG2, 2, 4 or 8 μM, 24 h) of the same compound?
Answer: Its Bcl-2 protein levels is “decreased”.

Question: And the “Expression of cleaved PARP” value ([1]; HepG2, vs control)?
Answer: The value was “significantly increased”.

Question: And the “Expression of cleaved caspase-3” value ([1]; HepG2, vs control)?
Answer: Its value is “significantly increased”.

Question: And the “Expression of cleaved caspase-9” value ([1]; HepG2, vs control)?
Answer: Its value is “significantly increased”.
